Measurements: patent US10961187B2, “Substituted N-acetyl-L-cysteine derivatives and related compounds” (Promentis Pharmaceuticals, Inc., priority 2013, dated 2021)

What was measured:
[1] = test system: mixed cortical cell cultures containing glial and neuronal cells; assay: In vitro thiol experiment: intracellular cysteine levels; format: cell-based, mice; conditions: 30 minutes; for intracellular cysteine concentration: raw concentration in collected samples
Experimental: To further resolve by what process the inhibition of ^14C-cystine uptake is occurring intracellular cysteine levels were determined.
Mixed cortical cell cultures containing glial and neuronal cells were prepared from fetal (15-16 day gestation) mice as previously described. (Lobner D, “Comparison of the LDH and MTT assays for quantifying cell death: validity for neuronal apoptosis?,” J. Neurosci. Methods, 96(2): 147-152 (Mar. 15, 2000)). Dissociated cortical cells were plated on 24-well plates coated with poly-D-lysine and laminin in Eagles' Minimal Essential Medium (MEM, Earle's salts, supplied glutamine-free) supplemented with 5% heat-inactivated horse serum, 5% fetal bovine serum, 2 mM glutamine and glucose (total 21 mM). Cultures were maintained in humidified 5% CO2 incubators at 37° C. Mice were handled in accordance with a protocol approved by our institutional animal care committee and in compliance with the Public Health service Policy on Humane Care and Use of Laboratory Animals.
Mixed cortical cell cultures, 14 days in vitro (this allows for a confluent layer of astrocytes to form and the neurons to generate a complex network of axons and dendrites), were washed into bicarbonate buffered salt solution. After 1 hour, 3, 10, 30, 100 μM of Pro-4047 or Pro-4051 was added and the cells were incubated for 30 or 90 minutes, after which the cells were thoroughly washed and the collected in 250 μL of aqueous mobile phase (50 mM citric acid, 10 mM octanesulfonic acid, pH 2.8) was added, after 10 minutes at 37° C. the cells were scraped from the plates and transferred to 1.5 mL tubes for analysis.
Samples were then sonicated with a Fisher Scientific 60 Sonic Dismembrator. One fraction of this homogenate was analyzed with the Pierce BCA (bicinchoninic acid) method to determine protein concentration. The other fraction was filtered using 3 K molecular weight cutoff, polyethersulfone centrifugal protein filters, and analyzed for thiol content using HPLC (ALF-115 column, 150×1.0 mm, 3 μm C18 [Pro-2023 analysis utilized a Phenomenex Kinetex 2.6 μM, C18, 100 A, 150×2.1 mm and Pro-4047 analysis utilized a Phenomenex Kinetex X-B, C18, 100 A, 2.6 μm, 150×4.4 mm]; mobile phase: 50 mM citric acid, 10 mM octanesulfonic acid, 2% acetonitrile, pH 2.8, 50 μL/min flow rate [Pro-2023 analysis utilized a 100 μL/min flow rate and Pro-4047 analysis utilized 1% acetonitrile and 0.4 mL/min flow rate] with electrochemical detection (Decade II, Au working electrode, Flex Cell HyREF, 0.55V, Antec Leyden, Netherlands [Pro-4047 analysis utilized a Magic Diamond working electrode and 1.8V]).
When the intracellular thiol assay was initiated, all data was normalized to protein concentration. […] The data presented herein represents the raw cysteine concentrations in the collected samples. […] Pro-4006 at 10 μM increases intracellular cysteine concentration to 0.07 μM at 30 minutes (approximately 3.5 times that of the control; FIG. 11). […] Pro-4047 at 300 μM increases intracellular cysteine concentration to 0.74 μM at 90 minutes (approximately 4.9 times that of the control; FIG. 13). […] Thus, based on the 3 in vitro experiments it is apparent that Pro-2023, Pro-4006, Pro-4011, Pro-4047, Pro-4051 and Pro-4051a behave as effective cysteine prodrugs.

System xc− [2] = target: T1, System xc− (Homo sapiens, UniProt Q9UPY5); assay: 3H-glutamate release from human glial cells from brain astrocytoma (1321N1); format: cell-based; conditions: 1321N1 cells
T1 construct: in vitro culture system of human glial cells from brain astrocytoma (1321N1); endogenous in cells; host or cells: 1321N1 human astrocytoma cells
T1 sequence (Q9UPY5 1-501): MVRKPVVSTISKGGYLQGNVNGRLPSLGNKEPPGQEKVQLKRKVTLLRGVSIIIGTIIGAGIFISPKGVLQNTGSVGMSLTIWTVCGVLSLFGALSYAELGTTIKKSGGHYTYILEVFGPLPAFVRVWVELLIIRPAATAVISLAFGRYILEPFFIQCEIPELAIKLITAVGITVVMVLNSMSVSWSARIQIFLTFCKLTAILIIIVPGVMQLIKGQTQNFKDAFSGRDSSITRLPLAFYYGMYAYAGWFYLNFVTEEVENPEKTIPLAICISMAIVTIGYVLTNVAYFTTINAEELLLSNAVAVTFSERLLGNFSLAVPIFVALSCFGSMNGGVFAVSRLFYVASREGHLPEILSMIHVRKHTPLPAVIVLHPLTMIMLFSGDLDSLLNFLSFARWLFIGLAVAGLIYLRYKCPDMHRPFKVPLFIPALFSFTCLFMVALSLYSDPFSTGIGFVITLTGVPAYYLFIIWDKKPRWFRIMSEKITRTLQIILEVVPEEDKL
T1 sequence (P08195 1-529 partner): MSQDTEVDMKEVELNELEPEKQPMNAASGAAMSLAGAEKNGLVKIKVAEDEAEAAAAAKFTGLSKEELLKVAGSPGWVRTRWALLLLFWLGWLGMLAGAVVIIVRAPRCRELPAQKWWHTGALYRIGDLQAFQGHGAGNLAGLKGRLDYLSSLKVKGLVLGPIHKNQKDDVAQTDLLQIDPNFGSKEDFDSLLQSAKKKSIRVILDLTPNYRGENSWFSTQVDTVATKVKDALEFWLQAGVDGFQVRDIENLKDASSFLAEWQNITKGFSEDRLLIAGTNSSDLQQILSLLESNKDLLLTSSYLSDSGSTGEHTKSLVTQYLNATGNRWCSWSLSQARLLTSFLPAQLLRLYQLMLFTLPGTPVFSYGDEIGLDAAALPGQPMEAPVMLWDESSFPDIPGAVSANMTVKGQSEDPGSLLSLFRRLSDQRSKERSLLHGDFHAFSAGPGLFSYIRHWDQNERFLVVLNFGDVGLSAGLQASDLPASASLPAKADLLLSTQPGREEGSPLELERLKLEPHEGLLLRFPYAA
Experimental: This assay also uses the cell culture system of human glial cells from brain astrocytoma (1321N1) described above. Initially, cells are washed with HBBSS, and ^3H-glutamate is added (PerkinElmer: 1 mCi/mL stock solution is diluted (30 μL+500 HBBSS) and 10 μL of diluted radiolabel is added to each well). Following a 1 hour incubation to load the cells with the labeled glutamate, the cells are washed again with HBBSS, and the drug is added. At 30, 90, and 180 minutes, 50 μL of extracellular media is sampled from each well and is measured using a Beckman LS 6500 scintillation counter.

System xc− [3] = target: T1, System xc−; assay: 14C-cystine uptake in human glial cells from brain astrocytoma (1321N1); format: cell-based; conditions: 1321N1 cells
Experimental: The goal of these experiments was to determine ^14C-cystine uptake.
The screening of compounds was performed using an in vitro culture system of human glial cells from brain astrocytoma (1321N1). Cells were plated on 24 well plates coated with poly-D-lysine and laminin and grown in a balanced salt solution supplemented with 5% heat inactivated horse serum, 5% fetal bovine serum, 2 mM glutamine and glucose (total 21 mM). Cultures were maintained in humidified 5% CO2 incubators at 37° C. for 3-4 days before experiments were performed, at this time the cultures has formed a single confluent layer. For experiments, cultures were washed 3 times into a Na-free HEPES and HCO3^− buffered balanced salt solution. After 1 hour, the test compounds are added. Following a three hour incubation, ^14C-cystine (0.025 mCi/mL) was then added for 20 minutes. Following the ^14C-cystine exposure, cultures were washed 3 times with ice cold HEPES buffered saline solution and dissolved in 250 μl sodium dodecyl sulfate (0.1%). An aliquot (200 μl) was removed and added to scintillation fluid for counting. Values were normalized to ^14C-cystine uptake in untreated controls on the same experimental plate.

Rats = assay: Elevated-plus maze; format: in vivo; conditions: 10 mg/kg PO
Experimental: Rats were tested in a standard elevated plus maze; testing occurred in a dimly illuminated room using only two lights mounted over the maze. Animals were allowed to habituate to the room for at least one hour prior to treatment. One hour prior to testing, rats received a compound of the present invention (0-30 mg/kg, P.O.). For testing, the rat was placed in the elevated plus maze for five minutes, alternating the starting position between facing an open arm and facing a closed arm. The session was recorded and an observer blind to treatment recorded the number of explorations, entries and time spent in the open arm. Explorations were defined as the rat placing two feet into an open arm without fully entering said arm. Entries were defined as the rat placing all four feet in an open arm. Time of entry in the open arm was recorded from the time the rat placed four feet in the open arm until two of the rats' feet entered the open square.

## CC(=O)N[C@@H](CSC(C)(C)c1ccccc1)C(N)=O [Pro-4006, (2R)-2-Acetamido-3-[(2-phenylpropan-2-yl)sulfanyl]propanamide]
[1]; 10 μM compound
  intracellular cysteine, times that of the control: approximately 3.5 times
  intracellular cysteine concentration: 0.07 µM
System xc− [2]; 30 μM, at 30 minutes
  increase in 3H-glutamate release: 35%
System xc− [3]; 30 μM (most effective concentration), three hour incubation
  decrease in 14C-cystine uptake: approximately 45%

## O=C(SC[C@H]1C(=O)NCC(=O)N1Cc1ccccc1)c1ccccc1 [Pro-4011, (6R)-6-[(benzoylsulfanyl)methyl]-1-benzylpiperazine-2,5-dione]
[1]; 10 μM compound
  intracellular cysteine, times that of the control: approximately 1.16 times
  intracellular cysteine concentration: 0.138 µM
System xc− [2]; 100 μM, at 3 hours
  increase in 3H-glutamate release: 75%
System xc− [3]; 100 μM (most effective concentration), three hour incubation
  increase in 14C-cystine uptake: approximately 75%

## CC(=O)N[C@@H](CSC(=O)c1ccc(C)cc1)C(N)=O [Pro-4051a, (2R)-2-acetamido-3-(4-methylbenzoylsulfanyl)propanamide]
[1]; 100 μM compound
  intracellular cysteine, times that of the control: approximately 3 times
  intracellular cysteine concentration: 0.21 µM
Rats
  increase of time on the open arms over control: not a significant increase over control
Rats; one hour prior to testing, five minute session
  time spent on the open arms: around 22 seconds
System xc− [2]; 1000 μM, at 30 minutes
  increase in 3H-glutamate release: approximately 180%
System xc− [3]; 3 hour incubation
  inhibition of 14C-cystine uptake (in words): did not produce a substantial inhibition
